Experiments:
Assay in all cases: concentration in plasma after dosing
[1] = tested on: Rat; details: 0.5 h; dosed: 1-Chloro-2-propanol; 7.5 mg/kg; oral; Female; F344
[2] = tested on: Rat; details: dosed: 1-Chloro-2-propanol, 7.5 mg/kg, oral, Male, F344
[3] = tested on: Rat; details: 20 min; dosed: 1-Chloro-2-propanol; 7.5 mg/kg; oral; Female; F344
[4] = tested on: Rat; details: 40 min; dosed: 1-Chloro-2-propanol; 15 mg/kg; oral; Male; F344
[5] = tested on: Rat; details: dosed: 1-Chloro-2-propanol, 7.5 mg/kg, oral, Male, F344; remark: listed apart in the source
[6] = tested on: Rat; details: dosed: 1-Chloro-2-propanol, 15 mg/kg, oral, Female, Harlan Sprague-Dawley
[7] = tested on: Rat; details: dosed: 1-Chloro-2-propanol, oral
[8] = tested on: Rat; details: dosed: 1-Chloro-2-propanol, 7.5 mg/kg, oral, Male, F344; remark: listed apart in the source
[9] = tested on: Rat; details: dosed: 1-Chloro-2-propanol, 7.5 mg/kg, oral, Female, F344
[10] = tested on: Rat; details: 40 min; dosed: 1-Chloro-2-propanol; 7.5 mg/kg; oral; Male; F344
[11] = tested on: Rat; details: dosed: 1-Chloro-2-propanol, 15 mg/kg, oral, Female, F344
[12] = tested on: Rat; details: dosed: 1-Chloro-2-propanol, 7.5 mg/kg, oral, Female, F344; remark: listed apart in the source
[13] = tested on: Rat; details: dosed: 1-Chloro-2-propanol, 7.5 mg/kg, oral, Female, F344; remark: listed apart in the source
[14] = tested on: Rat; details: dosed: 1-Chloro-2-propanol, 15 mg/kg, oral, Male, F344
[15] = tested on: Rat; details: dosed: 1-Chloro-2-propanol, 15 mg/kg, oral, Male, F344; remark: listed apart in the source
[16] = tested on: Rat; details: dosed: 1-Chloro-2-propanol, 15 mg/kg, oral, Female, F344; remark: listed apart in the source
[17] = tested on: Rat; details: dosed: 1-Chloro-2-propanol, 15 mg/kg, oral, Female, Harlan Sprague-Dawley; remark: listed apart in the source
[18] = tested on: Rat; details: dosed: 1-Chloro-2-propanol, 15 mg/kg, oral, Female, F344; remark: listed apart in the source
[19] = tested on: Rat; details: dosed: 1-Chloro-2-propanol, 7.5 mg/kg, oral, Male, F344; remark: listed apart in the source
[20] = tested on: Rat; details: dosed: 1-Chloro-2-propanol, 7.5 mg/kg, oral, Female, F344; remark: listed apart in the source
[21] = tested on: Rat; details: dosed: 1-Chloro-2-propanol, 15 mg/kg, oral, Female, Harlan Sprague-Dawley; remark: listed apart in the source
[22] = tested on: Rat; details: dosed: 1-Chloro-2-propanol, 7.5 mg/kg, oral, Male, F344; remark: listed apart in the source
[23] = tested on: Rat; details: dosed: 1-Chloro-2-propanol, 15 mg/kg, oral, Female, F344; remark: listed apart in the source
[24] = tested on: Rat; details: 0.5 h; dosed: 1-Chloro-2-propanol; 7.5 mg/kg; oral; Female; F344; remark: listed apart in the source
[25] = tested on: Rat; details: 10 min; dosed: 1-Chloro-2-propanol; 7.5 mg/kg; oral; Female; F344
[26] = tested on: Rat; details: dosed: 1-Chloro-2-propanol, 7.5 mg/kg, oral, Male, F344; remark: listed apart in the source
[27] = tested on: Rat; details: dosed: 1-Chloro-2-propanol, 15 mg/kg, oral, Male, F344; remark: listed apart in the source
[28] = tested on: Rat; details: dosed: 1-Chloro-2-propanol, 7.5 mg/kg, oral, Male, F344; remark: listed apart in the source
[29] = tested on: Rat; details: dosed: 1-Chloro-2-propanol, 15 mg/kg, oral, Female, Harlan Sprague-Dawley; remark: listed apart in the source
[30] = tested on: Rat; details: dosed: 1-Chloro-2-propanol, 15 mg/kg, oral, Male, F344; remark: listed apart in the source

CC(O)CCl (stereo not drawn) [1-Chloro-2-propanol] was tested, and the concentration in plasma [1] was 740 ng/mL, the concentration in plasma ([2]; 20 min) was 960 ng/mL and the concentration in plasma ([2]; 1.5 h) was 144 ng/mL. The concentration in plasma [3] was 830 ng/mL, the concentration in plasma [4] was 2740 ng/mL and the concentration in plasma ([5]; 5 min) was 1600 ng/mL. The concentration in plasma ([5]; 40 min) was 750 ng/mL, the concentration in plasma ([6]; 20 min) was 6300 ng/mL and the concentration in plasma ([6]; 1.5 h) was 354 ng/mL. The concentration in plasma ([7]; 5 min, 7.5 mg/kg, Female, F344) was 1920 ng/mL, the concentration in plasma ([7]; 5 min, 7.5 mg/kg, Male, F344) was 1660 ng/mL and the concentration in plasma ([7]; 5 min, 15 mg/kg, Female, F344) was 3360 ng/mL. The concentration in plasma ([7]; 5 min, 15 mg/kg, Male, F344) was 1700 ng/mL, the concentration in plasma ([7]; 10 min, 7.5 mg/kg, Female, F344) was 1890 ng/mL and the concentration in plasma ([7]; 10 min, 7.5 mg/kg, Male, F344) was 1830 ng/mL. For the same compound, the concentration in plasma ([7]; 10 min, 15 mg/kg, Female, F344) was 3860 ng/mL, the concentration in plasma ([7]; 10 min, 15 mg/kg, Male, F344) was 5370 ng/mL and the concentration in plasma ([7]; 20 min, 7.5 mg/kg, Female, F344) was 1660 ng/mL. For the same compound, the concentration in plasma ([7]; 20 min, 7.5 mg/kg, Male, F344) was 1030 ng/mL, the concentration in plasma ([7]; 20 min, 15 mg/kg, Female, F344) was 3180 ng/mL and the concentration in plasma ([7]; 20 min, 15 mg/kg, Female, Harlan Sprague-Dawley) was 3020 ng/mL. It also gave a concentration in plasma ([7]; 0.5 h, 7.5 mg/kg, Female, F344) of 479 ng/mL, a concentration in plasma ([7]; 0.5 h, 7.5 mg/kg, Male, F344) of 740 ng/mL and a concentration in plasma ([7]; 0.5 h, 15 mg/kg, Female, Harlan Sprague-Dawley) of 3270 ng/mL. It also gave a concentration in plasma ([7]; 40 min, 7.5 mg/kg, Female, F344) of 534 ng/mL, a concentration in plasma ([7]; 40 min, 7.5 mg/kg, Male, F344) of 638 ng/mL and a concentration in plasma ([7]; 40 min, 15 mg/kg, Female, Harlan Sprague-Dawley) of 4110 ng/mL. It also gave a concentration in plasma ([7]; 40 min, 15 mg/kg, Male, F344) of 3300 ng/mL, a concentration in plasma ([7]; 1 h, 7.5 mg/kg, Female, F344) of 138 ng/mL and a concentration in plasma ([7]; 1 h, 7.5 mg/kg, Male, F344) of 334 ng/mL. It also gave a concentration in plasma ([7]; 1 h, 15 mg/kg, Female, F344) of 677 ng/mL, a concentration in plasma ([7]; 1 h, 15 mg/kg, Male, F344) of 920 ng/mL and a concentration in plasma ([7]; 1.5 h, 7.5 mg/kg, Male, F344) of 117 ng/mL. For the same compound, the concentration in plasma ([7]; 1.5 h, 15 mg/kg, Female, Harlan Sprague-Dawley) was 768 ng/mL, the concentration in plasma ([7]; 2 h, 7.5 mg/kg, Male, F344) was 70 ng/mL and the concentration in plasma ([7]; 2 h, 15 mg/kg, Female, F344) was 127 ng/mL. It also gave a concentration in plasma ([7]; 2 h, 15 mg/kg, Male, F344) of 159 ng/mL, a concentration in plasma ([7]; 2.5 h, 15 mg/kg, Female, Harlan Sprague-Dawley) of 69 ng/mL and a concentration in plasma ([7]; 3 h, 15 mg/kg, Female, Harlan Sprague-Dawley) of 59 ng/mL. The concentration in plasma ([7]; 3 h, 15 mg/kg, Male, F344) was 107 ng/mL, the concentration in plasma ([8]; 0.5 h) was 1040 ng/mL and the concentration in plasma ([8]; 2 h) was 75 ng/mL. The concentration in plasma ([9]; 10 min) was 1260 ng/mL, the concentration in plasma ([9]; 1 h) was 133 ng/mL and the concentration in plasma [10] was 810 ng/mL. It also gave a concentration in plasma ([11]; 10 min) of 6200 ng/mL, a concentration in plasma ([11]; 2 h) of 72 ng/mL and a concentration in plasma ([12]; 5 min) of 2360 ng/mL. For the same compound, the concentration in plasma ([12]; 40 min) was 720 ng/mL, the concentration in plasma ([13]; 5 min) was 1170 ng/mL and the concentration in plasma ([13]; 40 min) was 213 ng/mL. It also gave a concentration in plasma ([14]; 5 min) of 6120 ng/mL, a concentration in plasma ([14]; 1 h) of 940 ng/mL and a concentration in plasma ([15]; 5 min) of 3020 ng/mL. For the same compound, the concentration in plasma ([15]; 1 h) was 1020 ng/mL, the concentration in plasma ([16]; 5 min) was 6880 ng/mL and the concentration in plasma ([16]; 1 h) was 630 ng/mL. For the same compound, the concentration in plasma ([17]; 0.5 h) was 4680 ng/mL, the concentration in plasma ([17]; 2.5 h) was 71 ng/mL and the concentration in plasma ([18]; 10 min) was 4730 ng/mL. It also gave a concentration in plasma ([18]; 2 h) of 112 ng/mL, a concentration in plasma ([19]; 0.5 h) of 1360 ng/mL and a concentration in plasma ([19]; 2 h) of 56 ng/mL. For the same compound, the concentration in plasma ([20]; 20 min) was 740 ng/mL, the concentration in plasma ([20]; 1.5 h) was 81 ng/mL and the concentration in plasma ([21]; 0.5 h) was 3970 ng/mL. The concentration in plasma ([21]; 2.5 h) was 79 ng/mL, the concentration in plasma ([22]; 10 min) was 1400 ng/mL and the concentration in plasma ([22]; 1 h) was 195 ng/mL. It also gave a concentration in plasma ([23]; 5 min) of 4660 ng/mL, a concentration in plasma ([23]; 1 h) of 897 ng/mL and a concentration in plasma [24] of 730 ng/mL. The concentration in plasma [25] was 1450 ng/mL, the concentration in plasma ([26]; 10 min) was 900 ng/mL and the concentration in plasma ([26]; 1 h) was 393 ng/mL. For the same compound, the concentration in plasma ([27]; 10 min) was 6070 ng/mL, the concentration in plasma ([27]; 2 h) was 131 ng/mL and the concentration in plasma ([28]; 20 min) was 1270 ng/mL. It also gave a concentration in plasma ([28]; 1.5 h) of 108 ng/mL, a concentration in plasma ([29]; 20 min) of 4590 ng/mL and a concentration in plasma ([29]; 1.5 h) of 780 ng/mL. The concentration in plasma ([30]; 10 min) was 6460 ng/mL and the concentration in plasma ([30]; 2 h) was 203 ng/mL.

Reference: EPA's CvTdb concentration-time database
